Activity calls are given as the source filed them. No cut-off for these calls is given here.

Data set [1] concerns NCI-H1792. Kind of data set: Antiproliferative activity against human NCI-H1792 cells harboring heterozygous KRAS G12C mutant assessed as inhibition of cell growth incubated for 72 hrs by MTT assay. As to conditions: NCI-H1792, 72 h. Type of data set: functional, cell-based. (In general: Formazan colour is commonly taken as a measure of viable cells.)
The nature of data set [2]: Antiproliferative activity against human HCA-7 cells harboring wild type KRAS assessed as inhibition of cell growth incubated for 72 hrs by MTT assay. As to conditions: HCA-7, 72 h. Type of data set: functional, cell-based, HCA7.
A short description of data set [3]: Tmax in NOD-SCID mouse at 15 mg/kg, ip administered as single dose and measured upto 48 hrs by HPLC/MS analysis. Type of data set: ADME, organism-based. The conditions noted are these: in vivo.
Data set [4] can be described thus: Half life in NOD-SCID mouse at 15 mg/kg, ip administered as single dose and measured upto 48 hrs by HPLC/MS analysis. The class given is ADME, organism-based. As to conditions: in vivo.
Data set [5] is described as follows: AUCt in NOD-SCID mouse at 15 mg/kg, ip administered as single dose and measured upto 48 hrs by HPLC/MS analysis. The class given is ADME, organism-based. Further details: dose 15 mg/kg, time < 48 hrs, route ip. As to conditions: in vivo.
The subject of data set [6] is GTPase KRas (Homo sapiens), P01116 [G12C]. Kind of data set: Binding affinity to Cys12 residue of GDP bound human KRAS-4B G12C mutant (1 to 169 residues) expressed in Escherichia coli BL21 Rosetta cells at 150 to 500 uM measured after 96 hrs by 1H-15N HSQC NMR spectral analysis. As to conditions: dose 150-500 µM.
Data set [7] shares this test system. The data set can be described thus: Binding affinity to Cys80 residue of GDP bound human KRAS-4B G12C mutant (1 to 169 residues) expressed in Escherichia coli BL21 Rosetta cells at 150 to 500 uM measured after 96 hrs by 1H-15N HSQC NMR spectral analysis. As to conditions: dose 150-500 µM.
Data set [8] has the same test system. Kind of data set: Covalent binding affinity to GDP-bound human KRAS-4B G12C mutant (1 to 169 residues) expressed in Escherichia coli BL21 Rosetta cells at 200 uM measured after 15 mins by Ellman's assay. (In general: DTNB colorimetry detects thiols as they appear.)
For data set [9] the test system is unchanged. The data set can be described thus: Reversible binding affinity to GDP-bound human KRAS-4B G12C mutant (1 to 169 residues) expressed in Escherichia coli BL21 Rosetta cells by intact LCMS analysis.

With `O=Cc1c(O)ccc2ccccc12`, the IC50 (as a rule, the concentration needed to halve the response being measured) in [1] was determined as 11.4 µM; in data set [2], 26.2 µM. Further, in data set [3], the Tmax – broadly, the time at which the peak concentration occurs – was found to be 0.25 h. Also, in data set [4], the half-life (in general, the time in which the quantity being followed falls by half) was 4 h. The AUC(0-t) (in general, the area under the concentration-time curve up to a stated or last time point) at 48 h in data set [5] stood at 28300 ng·h/mL. The outcome in data set [6], in [8] and in [9] was Active. The result in [7] was inactive.

The values are drawn from ChEMBL document CHEMBL5335777 (Eur J Med Chem, 2023).
